“And” between values parts separate entries of the source, which are not always exact repeats. Identical values can stand only once. “Also recorded” adds a separate entry of the source.
How the values were obtained:
C57Bl/6J female mice [1] = test: Vasopressin infusion during pregnancy, tail-cuff blood pressure; assay type: in vivo; conditions: vasopressin 24 ng/hr s.c. compared to 2.4 ng/hr s.c., P=0.03
Procedure: Method: Wildtype C57Bl/6J female mice were chronically infused with varied doses of arginine vasopressin (Sigma-Aldrich), via subcutaneous osmotic minipumps (Alzet), for three days preceding mating, then through gestational day 16. Mice were first acclimated to the restraint devices used for recordings for one week (“week −3”) before data recordings began. Blood pressure was assessed daily for two weeks preceding minipump implantation, through gestational day 16. Blood pressure was measured using tail-cuff plethysmography (Visitech). On any given recording day, the mouse was restrained and lightly warmed throughout the (30 min) recording period. Thirty consecutive 1 min inflation/deflation cycles were performed and successful pressure determinations were averaged within recording period for each mouse. Data sets from individual days with fewer than 10 successful determinations were excluded from analyses. Daily blood pressure values were averaged within animal for each week for statistical comparisons.

C57Bl/6J mice = test: Vasopressin infusion (240 ng/hr) during pregnancy, preeclampsia-like phenotypes; assay type: in vivo
Procedure: Animal Studies: Female C57Bl/6J mice were obtained from Jackson Laboratories between 8-12 weeks of age. Osmotic minipumps infusing vasopressin (240 ng/hr) or saline vehicle were inserted into the subcutaneous space via incision between the scapulae. Following three days of recovery, females were mated with male C57Bl/6J mice. Presence of a vaginal plug indicated gestational day 0.5. Blood pressure was tracked before mating and throughout gestation by tail-cuff plethysmography. On gestational day 18, females were sacrificed for necropsy. Pup weight was recorded. Dam kidney sections were generated and imaged by electron microscopy by the University of Iowa Department of Pathology. All studies were approved by the University of Iowa Animal Care and Use Committee (ACURF #1211239).

C57Bl/6J female mice [2] = test: Vasopressin infusion 0.24, 2.4 or 24 ng/hr during pregnancy, proteinuria and intrauterine growth restriction; assay type: in vivo; conditions: for fetal masses: dams infused with 24 ng/hr compared to 2.4 ng/hr vasopressin; for urine protein content: pregnant mice, GD17-GD18, vasopressin 0.24, 2.4, 24 ng/hr
Procedure: Method: Eighteen female C57BL/6J mice were obtained from the Jackson Laboratories. Subcutaneous osmotic minipumps (Alzet) were implanted to deliver vasopressin at 0.24, 2.4, or 24 ng/hr (six mice each group). After three days, mice were mated with wildtype C57BL/6J male mice for one night (thereby defining gestational day zero). On GD16, mice were placed into single-mouse metabolic cages (Nalgene) to collect urine for two consecutive nights. On GD18, mice were sacrificed to quantify and collect fetuses and placentas. Urine protein was assessed by commercially-available BCA assay (Pierce).

[3] = tested on: wildtype female mice (C57Bl/6 background); test: Vasopressin infusion (24 ng/hr) throughout pregnancy, fetal and placental masses and resorption at GD18; assay type: in vivo; conditions: for Raw fetal mass (Fetus): individual fetuses; for Raw placental mass (Placenta): individual placentas
Procedure: Methods: Nine adult wildtype female mice were obtained from in-house breeding colonies that are based on the C57Bl/6 background strain. Three days before breeding, females were implanted with subcutaneous osmotic minipumps (Alzet) to continuously deliver arginine vasopressin (AVP, Sigma-Aldrich) at 24 ng/hr. Females were mated for two consecutive nights with wildtype male C57BL/6J males purchased from Jackson Laboratories. GD1 was defined based upon the presence of a vaginal sperm plug. On gestational day 18, female mice were sacrificed by CO2 asphyxiation, and fetuses and fetoplacental units were isolated by blunt dissection.

[4] = tested on: 2°-branch mesenteric artery; test: Mesenteric artery vascular reactivity (pressurized myography); assay type: cell-based, mice
Procedure: Mesenteric Artery Vascular Reactivity: Secondary branches of mesenteric artery were dissected and placed in chilled oxygenated (21% O2, 5% CO2, and 74% N2) Kreb's buffer. A segment (˜1 mm long) of artery was transferred to a vessel chamber (DMT), cannulated with glass micropipettes and secured with silk ligatures. The artery was slowly pressurized to 40 mmHg without flow. After 30 min equilibration, vessel viability was tested by constriction response to 100 mM KCl. Vascular responses to PE (10-9-10-5 mol/L), AVP (10-12-10-7 mol/L), and ET-1 (10-11-10-8 mol/L) were then assessed. The artery was then superfused with calcium-free Krebs buffer containing 10-5 mol/L sodium nitroprusside and 2 mmol/L EGTA to maximally dilate the vessel. Internal and external diameters were measured at 75 mm Hg. Wall thickness, media/lumen ratio and cross sectional area (CSA) were calculated as previously described by Neves, et al. (62).
Statistics: Data were analyzed by ANOVA with repeated measures as appropriate. Post-hoc analyses were performed using Bonferroni multiple-comparisons procedures. EC50 and maximum response calculations were performed by fitting individual dose-response data sets to a four-parameter logistic function (Hillslope method); y=min+([…])/(1+(x/EC50)^Hillslope). All mRNA fold changes were calculated using the Livak method (54). All analytical comparisons were performed using SigmaStat/SigmaPlot (Systat). All data are presented as mean±sem.

[5] = vasopressin 240 ng/hr sc infusion vs saline
[6] = all six pregnancies, vasopressin 24 ng/hr, GD18
[7] = average of dam 200245-2 (HD4), vasopressin 24 ng/hr, GD18
[8] = average of dam 200245-4 (HD5), vasopressin 24 ng/hr, GD18
[9] = average of dam 200301-2 (HD2), vasopressin 24 ng/hr, GD18
[10] = average of dam 200301-4 (HD3), vasopressin 24 ng/hr, GD18
[11] = average of dam 200357-1 (HD6), vasopressin 24 ng/hr, GD18
[12] = average of dam 200372-3 (HD9), vasopressin 24 ng/hr, GD18
[13] = dam 200245-2 (HD4), vasopressin 24 ng/hr, GD18
[14] = dam 200245-4 (HD5), vasopressin 24 ng/hr, GD18
[15] = dam 200301-2 (HD2), vasopressin 24 ng/hr, GD18
[16] = dam 200301-4 (HD3), vasopressin 24 ng/hr, GD18
[17] = dam 200357-1 (HD6), vasopressin 24 ng/hr, GD18
[18] = dam 200372-3 (HD9), vasopressin 24 ng/hr, GD18

NC(=O)CC[C@@H]1NC(=O)[C@H](Cc2ccccc2)NC(=O)[C@H](Cc2ccc(O)cc2)NC(=O)[C@@H](N)CSSC[C@@H](C(=O)N2CCC[C@H]2C(=O)N[C@@H](CCCN=C(N)N)C(=O)NCC(N)=O)NC(=O)[C@H](CC(N)=O)NC1=O [Arginine vasopressin]
blood pressure, third week of pregnancy (gestational days 14-16) (C57Bl/6J female mice [1]): increased blood pressure | blood pressure, third week of pregnancy (gestational days 14-16) (C57Bl/6J female mice [1]; listed as AVP): late-pregnancy increase in blood pressure | proteinuria (C57Bl/6J mice; [5]): apparent proteinuria | rate of pregnancy (fecundity) (C57Bl/6J mice; [5]): significantly reduced the rate of pregnancy; also recorded: significantly reduced fecundity | renal cortex electron microscopy (C57Bl/6J mice; [5]): pathognomic glomerular endotheliosis | blood pressure in pregnancy (C57Bl/6J mice; vasopressin 240 ng/hr sc infusion vs saline, tail-cuff): robust increase in blood pressure; also recorded: appears to induce hypertension | fetal growth (C57Bl/6J mice; vasopressin 240 ng/hr sc infusion, gestational day 18): substantial fetal growth restriction | mice that became pregnant (of six) (C57Bl/6J female mice [2]; 0.24 ng/hr infusion): two | mice that became pregnant (of six) (C57Bl/6J female mice [2]; 2.4 ng/hr infusion): five | mice that became pregnant (of six) (C57Bl/6J female mice [2]; 24 ng/hr infusion): three | preterm labor (C57Bl/6J female mice [2]; 24 ng/hr vasopressin infusion group, gestational day 17): one pregnant mouse exhibited preterm labor | fetal masses (C57Bl/6J female mice [2]; GD18, listed as Vasopressin): dose-dependent intrauterine growth restriction | fetal masses (C57Bl/6J female mice [2]; GD18, listed as vasopressin): significantly suppressed | urine protein content (C57Bl/6J female mice [2]; listed as Vasopressin): dose-dependent proteinuria | urine protein content (C57Bl/6J female mice [2]; listed as vasopressin): elevated in a dose-dependent manner | placental masses (C57Bl/6J female mice [2]; vasopressin 0.24, 2.4, 24 ng/hr, GD18): indistinguishable across treatment groups | Avg mass, Fetus [3, 6]: 0.4929 g | Avg mass, Placenta [3, 6]: 0.0628 g | Resorb, total count [3, 6]: 10 | resorbed fetoplacental units [3, 6]: 17% | Avg mass, Fetus [3, 7]: 0.7741 g | Avg mass, Placenta [3, 7]: 0.0536 g | Avg mass, Fetus [3, 8]: 0.0371 g | Avg mass, Placenta [3, 8]: 0.0388 g | Avg mass, Fetus [3, 9]: 0.3741 g | Avg mass, Placenta [3, 9]: 0.0760 g | Avg mass, Fetus [3, 10]: 0.3054 g | Avg mass, Placenta [3, 10]: 0.0672 g | Avg mass, Fetus [3, 11]: 0.4660 g | Avg mass, Placenta [3, 11]: 0.0545 g | Avg mass, Fetus [3, 12]: 1.0077 g | Avg mass, Placenta [3, 12]: 0.0761 g | Raw fetal mass (Fetus) [3, 13]: 0.7964 g and 0.5962 g and 0.8258 g and 0.8183 g and 0.8336 g | Raw fetal mass (Fetus) [3, 14]: 0.0154 g and 0.0699 g and 0.0261 g | Raw fetal mass (Fetus) [3, 15]: 0.3756 g and 0.3352 g and 0.3805 g and 0.3954 g and 0.3094 g and 0.3777 g and 0.4078 g and 0.3880 g and 0.3971 g | Raw fetal mass (Fetus) [3, 16]: 0.2866 g and 0.2599 g and 0.3328 g and 0.3609 g and 0.3085 g and 0.3087 g and 0.2955 g and 0.3356 g and 0.3129 g and 0.3034 g and 0.3086 g and 0.2516 g | Raw fetal mass (Fetus) [3, 17]: 0.4865 g and 0.4962 g (2×) and 0.4780 g and 0.4092 g and 0.4543 g and 0.5241 g and 0.4999 g and 0.4399 g and 0.4501 g and 0.5057 g and 0.3521 g | Raw fetal mass (Fetus) [3, 18]: 0.9287 g and 1.0395 g and 1.1359 g and 1.0723 g and 1.0064 g and 0.9679 g and 0.9034 g | Raw placental mass (Placenta) [3, 13]: 0.0679 g and 0.0629 g and 0.0860 g and 0.0898 g and 0.0770 g and 0.0070 g and 0.0157 g and 0.0324 g and 0.0433 g | Raw placental mass (Placenta) [3, 14]: 0.0494 g and 0.0410 g and 0.0261 g and <0.01 g (5×) | Raw placental mass (Placenta) [3, 15]: 0.0687 g and 0.0810 g and 0.0828 g and 0.0796 g and 0.0638 g and 0.0840 g and 0.0936 g and 0.0477 g and 0.0827 g | Raw placental mass (Placenta) [3, 16]: 0.0315 g and 0.0762 g and 0.0747 g and 0.0876 g and 0.0710 g and 0.0789 g and 0.0620 g and 0.0687 g and 0.0669 g and 0.0714 g and 0.0640 g and 0.0529 g | Raw placental mass (Placenta) [3, 17]: 0.0599 g and 0.0709 g and 0.0663 g and 0.0509 g and 0.0480 g and 0.0648 g and 0.0767 g and 0.0678 g and 0.0426 g and 0.0471 g and 0.0569 g and 0.0499 g and 0.0067 g | Raw placental mass (Placenta) [3, 18]: 0.0725 g and 0.0866 g and 0.0753 g and 0.0810 g and 0.0706 g and 0.0702 g and 0.0766 g | fetus mass across all six pregnancies ([3]; n=48, vasopressin 24 ng/hr, GD18, P<0.0001 against 0.90 gram historical control): 0.4929±0.0397 gram/fetus | female mice that became pregnant (of nine) ([3]; vasopressin 24 ng/hr, two nights mating): Six | Maximum Response ([4]; male Control mice): 52.5 ± 3.2% | Maximum Response ([4]; male sRA mice): 17.3 ± 6.5 %
